Columns and labels:
Assay type in all cases: cell-based, human
day 2 paraxial mesoderm = experiment: Early somite progenitor formation from paraxial mesoderm, qPCR; conditions: 24 hours
Method: Day 2 paraxial mesoderm was briefly washed (DMEM/F12) and further differentiated into day 3 early somite/somitomere precursors for 24 hours (1 μM A-83-01+250 nM LDN-193189+1 μM C59+500 nM PD0325901). Subsequently, day 3 early somites were dorsoventrally patterned into either ventral somites/sclerotome (5 nM 21K+1 μM C59) or dorsal somites/dermomyotome (3 μM CHIR99021+150 nM Vismodegib). Sclerotome induction was conducted for 48-72 hours (leading to day 5-6 ventral somite progenitors). For dermomyotome induction, sometimes dermomyotome was induced in the presence of 50 ng/mL BMP4 to upregulate PAX7 after 48 hours of BMP4+CHIR99021+Vismodegib differentiation (leading to day 5 dermomyotome progenitors). Media was changed 24 hours for all steps.

lateral mesoderm = experiment: Forelimb versus hindlimb progenitor specification from lateral mesoderm; conditions: for competence of lateral mesoderm for forelimb fate: lateral mesoderm induced in presence of retinoid antagonists
Method: Undifferentiated hPSCs (wild-type H7 as well as TBX5-Venus V19-2 H9 hESCs) were maintained in mTeSR1 media on Geltrex-coated plates. As described, they were differentiated into mid primitive streak for 24 hours (D0-1; 30 ng/mL Activin+40 ng/mL BMP4+6 μM CHIR99021+20 ng/mL FGF2+100 nM PIK90) and subsequently differentiated into lateral mesoderm (D1-2; 1 μM A-83-01+30 ng/mL BMP4+1 μM C59), with the inclusion of 50 nM of TTNPB or 2 μM ATRA on D1-2 for trunk lateral mesoderm that was subsequently competent for forelimb differentiation.
Day 2 trunk lateral mesoderm was differentiated into day 3 forelimb progenitors (D2-3; 1 μM A-83-01+1 μM DMH1+3 μM CHIR99021). By contrast, day 2 non-trunk lateral mesoderm was differentiated into day 3 hindlimb progenitors (D2-3; 25 ng/mL Activin+1 μM DMH1+3 μM CHIR99021).

hESCs = experiment: Primitive streak (PS) induction from hESCs, qPCR
Method: As aforementioned, after overnight plating, hPSCs were briefly washed (with DMEM/F12) and then differentiated into either anterior primitive streak (30 ng/mL Activin A+4 μM CHIR99021+20 ng/mL FGF2+100 nM PIK90; for subsequent paraxial mesoderm induction) or mid primitive streak ([…] Activin A+40 ng/mL BMP4+6 μM CHIR99021+20 ng/mL FGF2+100 nM PIK90; for subsequent cardiac mesoderm induction) for 24 hrs.
Total cDNA was diluted 1:10-1:30 in H2O and qPCR was performed with the SensiFAST SYBR Lo-ROX Kit (Bioline) with 10 μL qPCR reactions per well in a 384-well plate: 5.0 μL 2× qPCR Master Mix+4.6 μL cDNA (totaling ˜120 ng of cDNA)+0.4 μL of 10 μM primer stock (5 μM forward+5 μM reverse primers). In general, gene-specific primer pairs were tested for (1) specificity of amplicon amplification (only one peak on a dissociation curve) and (2) linearity of amplicon amplification (linear detection of gene expression in cDNA samples serially diluted seven times over two orders of magnitude, with 90-110% efficiency of amplification deemed acceptably linear). After qPCR plates were prepared by arraying sample-specific cDNAs and gene-specific primers, they were sealed and briefly centrifuged (5 mins). 384-well qPCR plates and their adhesive sealing sheets were obtained from Thermo (AB1384 and AB0558, respectively). qPCR plates were run on a 7900HT Fast Real-Time PCR System (Applied Biosystems) with the following cycling parameters: initial dissociation (95° C., 2 mins) followed by 40 cycles of amplification and SYBR signal detection (95° C. dissociation, 5 seconds; 60° C. annealing, 10 seconds; followed by 72° C. extension, 30 seconds), with a final series of steps to generate a dissociation curve at the end of each qPCR run. During qPCR data analysis, the fluorescence threshold to determine Ct values was set at the linear phase of amplification; other qPCR data analysis methods including qPCR heatmap generation using the GenePattern platform (Broad Institute) were described previously by Loh et al., 2014, the disclosure of which is incorporated herein by reference in its entirety.
E) To assess whether inducing PS in the presence of TGFβ signaling altered its downstream potential to form different kinds of mesoderm, (i) H7 hESCs were differentiated into PS with CHIR99021+FGF2+PIK90 (CFK) for 24 hours in the presence or absence of increasing amounts of Activin (10-100 ng/mL), and then were transferred into paraxial mesoderm induction conditions (A-83-01+CHIR99021+DM3189+FGF2) for 24 hrs, and qPCR was conducted or (ii) H7 hESCs were differentiated into PS with BMP4 (10 ng/mL)+CHIR99021+FGF2+PIK90 (B10CFK) for 24 hours in the presence or absence of increasing amounts of Activin (10-100 ng/mL), and then were transferred into lateral/cardiac mesoderm inductions (A-83-01+BMP4+C59) for 24 hours and qPCR was conducted. […] F) To assess whether inducing PS in the presence of BMP signaling altered its downstream potential to form different kinds of mesoderm, H7 hESCs were differentiated into PS with Activin (10 ng/mL)+CHIR99021+FGF2+PIK90 (A10CFK) for 24 hours in the presence of absence of increasing amounts of BMP4 (1-40 ng/mL), and then were (i) transferred into paraxial mesoderm induction conditions (A-83-01+CHIR99021+DM3189+FGF2) for 24 hrs, and qPCR was conducted or were (ii) transferred into lateral/cardiac mesoderm inductions (A-83-01+BMP4+C59) for 24 hours and qPCR was conducted. […] G) H7 hESCs were differentiated into anterior primitive streak (30 ng/mL Activin+4 μM CHIR99021+20 ng/mL FGF2+100 nM PIK90) in the presence or absence of BMP4 (10 ng/mL) for 24 hours, and then transferred into paraxial mesoderm induction conditions for 24 hours before TBX6 immunostaining was conducted. […]

[1] = system: hESC-derived primitive streak; experiment: Paraxial versus lateral/cardiac mesoderm specification from primitive streak; conditions: for paraxial mesoderm induction (qPCR day 2): ACF with DMH1 1 μM or LDN193189 250 nM, CDF with SB-505124 2 μM or A-83-01 1 μM, 24 hours
Method: Subsequently, day 1 anterior primitive streak was briefly washed (DMEM/F12) and differentiated towards day 2 paraxial mesoderm for 24 hours (1 μM A-83-01+3 μM CHIR99021+250 nM LDN-193189+20 ng/mL FGF2). Separately, day 1 mid primitive streak was differentiated towards day 2 lateral mesoderm for 24 hours (1 μM A-83-01+30 ng/mL BMP4+1 μM C59; with 2 μM SB-505124 sometimes used instead of A-83-01).
B) To assess whether FGF/ERK signaling was permissive for both paraxial and lateral/cardiac mesoderm specification, hESCs were differentiated into primitive streak for 24 hours, and then transferred into (i) A-83-01+DM3189 (“AD”; permissive for paraxial mesoderm) or (iii) A-83-01+BMP4+C59 (“AB+C59”; permissive for lateral/cardiac mesoderm) for 24 hours in the presence or absence of a FGF agonist (FGF2, 10-20 ng/mL), an FGFR inhibitor (PD173074, 100 nM) or a MAPK/ERK inhibitor (PD0325901, 500 nM) for 24 hours and qPCR for all experiments was conducted on day 2 (that is, after 48 total hours of hESC differentiation). To assess whether TGFβ signaling altered paraxial, intermediate and lateral/cardiac mesoderm specification, hESCs were differentiated into primitive streak for 24 hours, and then transferred into (ii) DM3189+FGF2 (“DF”; permissive for paraxial mesoderm) or (iv) BMP4+C59 (“B+C59”; permissive for lateral/cardiac mesoderm) for 24 hours in the presence of a TGFβ agonist (Activin, 10-25 ng/mL) or a TGFβR inhibitor (A-83-01, 1 μM) for 24 hours or (v) BMP4 (3 ng/mL)+FGF2 (20 ng/mL) (“B3F20”) for 24 hours in the presence of a TGFβ agonist (Activin, 3-25 ng/mL) or a TGFβR inhibitor (A-83-01, 1 μM) and qPCR for all experiments was conducted on day 2 (that is, after 48 total hours of hESC differentiation). […] Therefore, hESCs were differentiated towards primitive streak for 24 hours, and then subsequently transferred into (i) A-83-01+CHIR99021+FGF2 (ACF) in the presence or absence of one of two BMPR inhibitors (DMH1, 1 μM or LDN193189, 250 nM) for 24 hours and qPCR was conducted on day 2. Alternately, hESC-derived PS was transferred into (ii) CHIR99021+DM3189+FGF2 (CDF) for 24 hours in the presence or absence of a TGFβ agonist (25 ng/mL Activin) or one of two TGFβR inhibitors (SB-505124, 2 μM or A-83-01, 1 μM) for 24 hours and qPCR was conducted on day 2. […] E) To test the role of FGF in lateral mesoderm induction (on day 2 of hESC differentiation), NKX2.5-GFP hESCs were differentiated into mid primitive streak for 24 hours, and then were treated with BMP4+C59+SB505124 in the presence of an FGF agonist (FGF2, 20-50 ng/mL) or a FGFR inhibitor (PD173074, 100 nM) or a MAPK/ERK inhibitor (PD0325901, 500 nM) for 24 hours, and then all cultures were treated with BMP4+C59+SB505124+FGF2 for 24 hours more before being harvested on day 3 for FACS.

Question: Which “early somite marker expression (qPCR day 3)” value (shortened to “early somite marker expression”) (day 2 paraxial mesoderm; ACDP with RA 0.5-2 μM) does the source give for `CC1=C(/C=C/C(C)=C/C=C/C(C)=C/C(=O)O)C(C)(C)CCC1` [all-trans retinoic acid] here?
Answer: dispensable for the expression of early somite markers

Question: And the “early somite marker expression” value (day 2 paraxial mesoderm; ACDP with RA 0.5-2 μM, listed as RA)?
Answer: dispensable for early somite formation

Question: And the “forelimb transcription factor TBX5 expression on D3” value (lateral mesoderm; RA signaling activated for 24 hours during lateral mesoderm induction (D1-2))?
Answer: paramount for lateral mesoderm to subsequently express key forelimb transcription factor TBX5

Question: `Cl.c1ccc2c(-c3cnn4cc(-c5ccc(N6CCNCC6)cc5)cnc34)ccnc2c1` [LDN193189, 4-[6-[4-(1-Piperazinyl)phenyl]pyrazolo[1,5-a]pyrimidin-3-yl]-quinoline hydrochloride] was tested. Which “PS formation and anterior-posterior patterning” value (hESCs; ACFK with LDN193189 250 nM or BMP4 3-100 ng/mL) did it give?
Answer: fully abolished PS formation

Question: What about the “paraxial mesoderm induction (qPCR day 2)” value [1] of the same molecule?
Answer: serve to induce paraxial mesoderm

Question: And the “early somite marker expression” value (day 2 paraxial mesoderm; CPR with DM3189 250 nM)?
Answer: permissive for expression of early somite markers

Question: With `Cc1cccc(-c2nn(C(=S)Nc3ccccc3)cc2-c2ccnc3ccccc23)n1` [A-83-01, 3-(6-Methyl-2-pyridinyl)-N-phenyl-4-(4-quinolinyl)-1H-pyrazole-1-carbothioamide] as the molecule, how does the PS differentiation (hESCs; CHIR99021+20 ng/mL FGF2+100 nM PIK90 with 2 μM SB-505124 or 1 μM A-83-01) read?
Answer: strongly impairs PS differentiation

Question: What about the “paraxial mesoderm induction (qPCR day 2)” value [1] of the same molecule?
Answer: serve to induce paraxial mesoderm

Question: What about the “NKX2.5-GFP+ cardiac mesoderm induction (FACS day 3)” value ([1]; BMP4 (50 ng/mL)+C59, 48 hours, SB-505124 2 μM or A-83-01 1 μM, P<0.01) of the same molecule?
Answer: increased NKX2.5-GFP^+ cardiac mesoderm induction

Question: What about the “early somite marker expression” value (day 2 paraxial mesoderm; CDPR with A-83-01 1 μM) of the same molecule?
Answer: permissive for expression of early somite markers

Question: With `CC(C)Oc1ccc(-c2cnc3c(-c4ccnc5ccccc45)cnn3c2)cc1` [DMH1, 4-[6-[4-(1-Methylethoxy)phenyl]pyrazolo[1,5-a]pyrimidin-3-yl]-quinoline] as the molecule, how does the “paraxial mesoderm induction (qPCR day 2)” value [1] read?
Answer: serve to induce paraxial mesoderm

Question: For `CC1(C)CC=C(C#Cc2ccccc2)c2cc(/C=C/c3ccc(C(=O)O)cc3)ccc21` [BMS493], which “competence of lateral mesoderm for forelimb fate” value (lateral mesoderm) is on record?
Answer: incompetent to subsequently assume a forelimb fate

Question: How did the “competence of lateral mesoderm for forelimb fate” value (lateral mesoderm) turn out when `Cc1ccc(C2=CCC(C)(C)c3ccc(C#Cc4ccc(C(=O)O)cc4)cc32)cc1` [AGN193109] was run?
Answer: incompetent to subsequently assume a forelimb fate

B1: WNT3A: Wnt agonist, WNT family ligand (protein, UniProt P56704 19-352, looked up)
Protein Wnt-3a: SYPIWWSLAVGPQYSSLGSQPILCASIPGLVPKQLRFCRNYVEIMPSVAEGIKIGIQECQHQFRGRRWNCTTVHDSLAIFGPVLDKATRESAFVHAIASAGVAFAVTRSCAEGTAAICGCSSRHQGSPGKGWKWGGCSEDIEFGGMVSREFADARENRPDARSAMNRHNNEAGRQAIASHMHLKCKCHGLSGSCEVKTCWWSQPDFRAIGDFLKDKYDSASEMVVEKHRESRGWVETLRPRYTYFKVPTERDLVYYEASPNFCEPNPETGSFGTRDRTCNVSSHGIDGCDLLCCGRGHNARAERRREKCRCVFHWCCYVSCQECTRVYDVHTCK
Question: B1 was tested. Which “PS marker expression (qPCR)” value (hESCs; 24 hours in A3B3F20, 300 ng/mL WNT3A or 0.5-8 μM CHIR99021) did it give?
Answer: broadly induces both anterior (TBX6) and mid/posterior (FOXF1, MESP1) PS markers
